Reference: patent US9399646B2 (Genentech, Inc., priority 2010, dated 2016)

Assays:
[1] = test system: MCF-7 cells; test: Breast cancer cell viability assay (CellTiter-Glo, 5 days); format: cell-based; settings: 5 days' compound exposure; for IC50: Homo sapiens, MCF7, 120 h
How it was run: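 MCF-7 cells, 320 per well in RPMI with 10% FBS and 20 mM HEPES, adhered overnight, then exposed 5 days to an eleven-point semilog dilution (final 0.3-0.000003 μM). CellTiter-Glo luminescence read; % viability = (sample − cell-free background)/(untreated − background) × 100.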

[2] = molecular target: T1, ER-α in MCF-7 cells (Homo sapiens, UniProt P03372); test: Breast cancer cell ER-α in cell western assay (SP1); format: cell-based; parameters: endogenous in cells; host or cells: MCF-7; settings: 4 or 24 hr post compound addition; for Emax: MCF7, SP1 antibody, read-out: ER-α In Cell Western Assay (SP1) Max Response; for DC50: SP1 antibody, read-out: ER-α In Cell Western Assay (SP1) IC50
T1 sequence (P03372 1-595): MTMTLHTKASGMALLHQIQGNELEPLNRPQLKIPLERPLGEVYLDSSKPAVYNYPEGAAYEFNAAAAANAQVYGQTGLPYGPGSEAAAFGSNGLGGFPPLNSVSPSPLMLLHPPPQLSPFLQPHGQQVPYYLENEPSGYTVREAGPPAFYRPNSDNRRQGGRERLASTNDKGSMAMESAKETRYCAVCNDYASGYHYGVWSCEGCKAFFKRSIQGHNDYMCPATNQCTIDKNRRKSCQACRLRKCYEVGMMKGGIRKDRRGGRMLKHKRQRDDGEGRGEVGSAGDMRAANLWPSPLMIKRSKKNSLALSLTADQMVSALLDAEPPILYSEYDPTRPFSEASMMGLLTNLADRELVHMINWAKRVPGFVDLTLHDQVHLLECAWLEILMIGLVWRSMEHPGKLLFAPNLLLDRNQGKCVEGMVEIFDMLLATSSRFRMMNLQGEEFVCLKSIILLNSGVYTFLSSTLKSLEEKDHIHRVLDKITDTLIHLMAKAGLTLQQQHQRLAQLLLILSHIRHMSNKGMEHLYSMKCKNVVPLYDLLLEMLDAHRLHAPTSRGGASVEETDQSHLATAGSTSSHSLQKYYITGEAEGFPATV
How it was run: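 ER-α protein levels were measured in MCF-7 cells after 4 or 24 hr compound exposure (final 0.3–0.000003 μM) in RPMI containing 10% charcoal-stripped FBS.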

| SMILES | IC50 [1] | Emax [2] | DC50 [2] | MCF7 Viability Assay Max Response [1] |
| --- | --- | --- | --- | --- |
| CC/C(=C(/c1ccc(/C=C/C(=O)O)cc1)c1ccc2[nH]nc(F)c2c1)c1ccncc1Cl [Compound 306, (E)-3-(4-((E)-2-(3-Chloropyridin-4-yl)-1-(3-fluoro-1H-indazol-5-yl)but-1-en-1-yl)phenyl)acrylic acid] | ≤ 100 nM | ≥ 40% | ≤ 100 nM | ++ (++ = a single % value ≧ 40%) |
| O=C(O)/C=C/c1ccc(/C(=C(\c2ccncc2Cl)C2CCC2)c2ccc3[nH]nc(F)c3c2)cc1 [Compound 307, (E)-3-(4-((E)-2-(3-Chloropyridin-4-yl)-2-cyclobutyl-1-(3-fluoro-1H-indazol-5-yl)vinyl)phenyl)acrylic acid] | ≤ 100 nM | ≥ 40% | ≤ 100 nM | ++ (++ = a single % value ≧ 40%) |
| O=C(O)/C=C/c1ccc(/C(=C(\c2ccc(F)cc2Cl)C2CCC2)c2ccc3nccn3c2)cc1 [Compound 311, (E)-3-(4-((E)-2-(2-Chloro-4-fluorophenyl)-2-cyclobutyl-1-(imidazo[1,2-a]pyridin-6-yl)vinyl)phenyl)acrylic acid] | ≤ 100 nM | ≥ 40% | ≤ 100 nM | ++ (++ = a single % value ≧ 40%) |
| CC/C(=C(/c1ccc(/C=C/C(=O)O)cc1)c1ccc2[nH]nc(F)c2c1)c1cscc1C [Compound 312, (E)-3-(4-((E)-1-(3-Fluoro-1H-indazol-5-yl)-2-(4-methylthiophen-3-yl)but-1-en-1-yl)phenyl)acrylic acid] | ≤ 100 nM | ≥ 40% | ≤ 100 nM | ++ (++ = a single % value ≧ 40%) |
| Cc1cscc1/C(=C(\c1ccc(/C=C/C(=O)O)cc1)c1ccc2[nH]nc(F)c2c1)C1CCC1 [Compound 313, (E)-3-(4-((E)-2-Cyclobutyl-1-(3-fluoro-1H-indazol-5-yl)-2-(4-methylthiophen-3-yl)vinyl)phenyl)acrylic acid] | ≤ 100 nM | ≥ 40% | ≤ 100 nM | ++ (++ = a single % value ≧ 40%) |

Continued, in another order:

| IC50 [1] | Emax [2] | DC50 [2] | SMILES | MCF7 Viability Assay Max Response [1] |
| --- | --- | --- | --- | --- |
| ≤ 100 nM | ≥ 40% | ≤ 100 nM | CC/C(=C(/c1ccc(/C=C/C(=O)O)cc1)c1ccc2[nH]ncc2c1)c1ccc2sncc2c1 [Compound 314, (E)-3-(4-((E)-2-(Benzo[d]isothiazol-5-yl)-1-(1H-indazol-5-yl)but-1-en-1-yl)phenyl)acrylic acid] | ++ (++ = a single % value ≧ 40%) |
| ≤ 100 nM | ≥ 40% | ≤ 100 nM | CC/C(=C(/c1ccc(/C=C/C(=O)O)cc1)c1ccc2[nH]ncc2c1)c1ccc(Oc2ccncc2)cc1 [Compound 315, (E)-3-(4-((E)-1-(1H-Indazol-5-yl)-2-(4-(pyridin-4-yloxy)phenyl)but-1-en-1-yl)phenyl)acrylic acid] | ++ (++ = a single % value ≧ 40%) |
| ≤ 100 nM | ≥ 40% | ≤ 100 nM | CC/C(=C(/c1ccc(/C=C/C(=O)O)cc1)c1ccc2[nH]ncc2c1)c1ccc(Oc2ccccn2)cc1 [Compound 316, (E)-3-(4-((E)-1-(1H-Indazol-5-yl)-2-(4-(pyridin-2-yloxy)phenyl)but-1-en-1-yl)phenyl)acrylic acid] | ++ (++ = a single % value ≧ 40%) |
| ≤ 100 nM | ≥ 40% | ≤ 100 nM | CC/C(=C(/c1ccc(/C=C/C(=O)O)cc1)c1ccc2[nH]ncc2c1)c1ccc(Cc2ccccc2)cc1 [Compound 317, (E)-3-(4-((E)-2-(4-Benzylphenyl)-1-(1H-indazol-5-yl)but-1-en-1-yl)phenyl)acrylic acid] | ++ (++ = a single % value ≧ 40%) |
| > 100 nM | ≥ 40% | ≤ 100 nM | CC/C(=C(/c1ccc(/C=C/C(=O)O)cc1)c1ccc2[nH]ncc2c1)c1ccc(C)c(Oc2ccccc2)c1 [Compound 318, (E)-3-(4-((E)-1-(1H-Indazol-5-yl)-2-(4-methyl-3-phenoxyphenyl)but-1-en-1-yl)phenyl)acrylic acid] | ++ (++ = a single % value ≧ 40%) |
